Among the data in the METLIN SMRT retention time set (Domingo-Almenara et al. 2019) are RP-LC retention time values, retold here.

This data set is described as follows: gradient 5% acetonitrile 3 min, to 50% in 2 min, to 85% in 15 min, held 3 min, 100 µL/min. Conditions: column: Zorbax Extend-C18 2.1 x 50 mm; eluents: water / acetonitrile, 0.1% formic acid. The method, boiled down:
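The system's dead and dwell volumes were 40 μL and 900 μL, with a Zorbax Extend-C18 column (2.1 × 50 mm, 1.8 μm) run at 100 μL/min in water and acetonitrile containing 0.1% formic acid each. Pure standards were analyzed in mixtures of ~100 molecules by HPLC–quadrupole time-of-flight mass spectrometry in positive and negative ionization mode. Retention time was assigned from computationally picked, manually inspected adduct peaks.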
`CCc1nc(-c2csc(S(=O)(=O)N3CCC(C(=O)NC4CCCCC4)CC3)c2)no1` yielded an RP-LC retention time of 955 s.
`CC(C)NC(=O)N1CCCC(c2cccc(C(=O)NCc3ccc(Cl)cc3)c2)C1` (centres undefined) registered an RP-LC retention time of 923 s.
Next, `O=C(Nc1ccc(Br)cc1)C1CCCN(c2ncc(-c3ccccc3)cn2)C1` (centres undefined): 1240 s.
Compound `O=c1[nH]cc(S(=O)(=O)N2CCc3ccccc3C2)c(=O)[nH]1` had an RP-LC retention time of 663 s.
Next, `COc1ccc(CNC(=O)c2cc3sccc3n2Cc2ccc(F)cc2)cc1`: 1080 s; `Cc1ncc([N+](=O)[O-])n1CCOC(N)=O`: 624 s.
In turn, `Cc1ccccc1Nc1c(-c2ccc(N3CCOCC3)cc2)nc2c(C)cccn12` yielded an RP-LC retention time of 729 s.
As to `Cc1ccc(CNS(=O)(=O)c2cc(-c3nc(C)c(C)s3)cs2)cc1`, the RP-LC retention time was 1040 s.
In the case of `Cc1cc(C)cc(NC(=O)Nc2nccn(-c3cc(C)cc(C)c3)c2=O)c1`, the RP-LC retention time is 1220 s.
`O=c1c2ccccc2n(Cc2nc(-c3cccc(Cl)c3)no2)c(=O)n1CC1CCCO1` (centres undefined) gave an RP-LC retention time of 1110 s.
For `CCOC(=O)c1cc(S(=O)(=O)N2CCCC2C(=O)N2CCCCCC2)cn1C` (centres undefined), the RP-LC retention time came out at 822 s.
In turn, `COC(=O)c1c(C)[nH]c(C(=O)N2CCCC(C(=O)N3CCC(C)CC3)C2)c1C` (centres undefined) returned an RP-LC retention time of 758 s.
Take `CCN(CC)S(=O)(=O)c1ccc2c(c1)CC(C(=O)NCc1ccc(N(C)C)cc1)N2C(C)=O` (centres undefined): the RP-LC retention time is 669 s.
Take `O=C(NCC#CCN1CCc2ccccc2C1)Nc1cccs1`: the RP-LC retention time is 557 s.
Then `Cc1ccc(CNS(=O)(=O)c2cc(-c3[nH]ncc3C(=O)N3CCCC3)oc2C)o1`, with 674 s; and `O=C(C(=O)N1CCN(c2ccccn2)CC1)c1ccc[nH]1`, with 556 s.
Then `COc1cc(Cl)ccc1C(=O)N1CCN(c2cc(-c3cccs3)[nH]n2)CC1`, with 795 s; and `CCc1noc(NC(C)=O)c1-c1ccc(OC)c(S(=O)(=O)N2CCN(c3ccccn3)CC2)c1`, with 614 s; and `CCOc1ccccc1CN1CCc2nc(Nc3ccc(F)cc3)ncc2C1`, with 616 s.
Regarding `CCN(CC)CCNC(=O)Cc1cc(-c2ccc(F)cc2F)on1`, the RP-LC retention time turned out to be 556 s.
Next, `Cc1ccc(N2CCN(C(=O)c3cn4ccc(C)cc4n3)CC2)cc1`: 664 s.
Then `CSc1cccc(NC(=O)CN2C(=O)CCn3nc(-c4cn(C)c5ccccc45)cc32)c1`, with 902 s; and `CCN1CCCn2cc(S(=O)(=O)Nc3cc(C)ccc3C)cc2C1=O`, with 756 s.
Then `CCN1CCC2(CC1)OC(=O)C(C)=C2C(=O)NCCCN1CCN(c2cc(C)ccc2C)CC1`, with 586 s.
In the case of `Cc1ccc2cc(CCC(=O)N3CCC4(CC3)OCCO4)c(=O)[nH]c2c1`, the RP-LC retention time came out at 688 s.
The compound `CCOC(=O)c1c(C)[nH]c(C(=O)N2CCC(C(C)C(=O)NCc3ccc(OC(C)C)cc3)CC2)c1C` (centres undefined) yielded an RP-LC retention time of 892 s.
Then `CCOC(=O)C1C(=O)C=C(c2ccc(OC)c(OC)c2)CC1c1cccc(OC)c1OC` (centres undefined), with 923 s; and `COc1nc2ccccc2nc1N1CCCC(C(=O)NCc2ccc(Cl)cc2)C1` (centres undefined), with 1110 s.
`COC(=O)c1cc(C)nc2c1c(=O)n(Cc1ccc(Cl)cc1)c(=O)n2Cc1ccco1` came in with an RP-LC retention time of 1160 s.
For `CCC1Oc2ccc(S(=O)(=O)N3CCC(C(=O)Nc4cccc(Cl)c4C)CC3)cc2NC1=O` (centres undefined), the RP-LC retention time was 947 s.
The compound `Cc1[nH]c(C(=O)N2CCCC(C(=O)NCc3ccccc3)C2)c(C)c1C(=O)OC(C)C` (centres undefined) came in with an RP-LC retention time of 860 s.
Next, `Cc1ccc(-n2c(=O)c3c(cc(C)n3C)n(CC(=O)Nc3ccccc3F)c2=O)cc1`: 841 s.
In the case of `CCn1c(=O)n(Cc2cccc(Cl)c2)c(=O)c2cnc(-c3ccc(OC)cc3)nc21`, the RP-LC retention time worked out at 1340 s.
Then `Cc1ccc(N2CC(c3nc(-c4ccc5c(c4)OCO5)no3)CC2=O)cc1C` (centres undefined), with 911 s; and `NC(=O)[C@@H]1C[C@H](Oc2ccccc2)CN1C1CCCC1`, with 584 s; and `Cc1ccc(-c2cn3cccnc3n2)cc1NC(=O)c1ccccc1Br`, with 682 s.
In turn, `COc1ncc(C(=O)NCc2ccc(Br)cc2)cn1` had an RP-LC retention time of 773 s.
Next, `Cc1cc(C(=O)Nc2nc(-c3nc4ccccc4s3)cs2)c(C)o1`: 1040 s.
Next, `O=C(c1nc(-c2ccnc(N3CCCCC3)c2)no1)N1CCN(C2CCCCC2)CC1`: 609 s; `CCCN(C(=O)Cc1c(C(=O)O)c(C)cn1CC)c1cccc(Cl)c1`: 767 s.
Take `COc1ccc(CNC(=O)c2ccc3c(c2)CC(=O)N3C)cc1`: the RP-LC retention time worked out at 696 s.
Next, `Cc1noc(-c2nn(C)c3c2CN(C(=O)c2ccc(Br)cc2)CC3)n1`: 774 s; `COc1ccc(-n2ncc3c(=O)n(Cc4nc(-c5ccc(OC)c(OC)c5)no4)cnc32)cc1`: 910 s.
Next, `CCCCN(C)CCCNC(=O)c1ccc2c(c1)NC(=O)C(C(C)CC)N2` (centres undefined): 612 s; `COc1ccc(-c2cc3c4nn(CC(=O)N5CCCc6ccccc65)c(=O)n4ccn3n2)cc1`: 937 s; `COc1cccc(CNC(=O)c2nnc(-c3ccc(S(=O)(=O)N4CCCCC4)cc3)o2)c1`: 960 s.
Next, `CS(=O)(=O)N1CCC(OC2CCN(C(=O)NCCc3ccccc3)CC2)CC1`: 724 s; `CCNC(=O)N1CCCC(c2cccc(C(=O)NCc3ccc(C(F)(F)F)cc3)c2)C1` (centres undefined): 896 s.
`CCc1cccc(NC(=O)Cn2nc(N3CCC(C)CC3)c3ccccc3c2=O)c1` gave an RP-LC retention time of 1220 s.
`Cc1cnc(-c2ccncc2)n1CC1CCN(S(=O)(=O)c2ccc3c(c2)OCCO3)C1` (centres undefined) gave an RP-LC retention time of 626 s.
`O=C(Nc1ccccc1)C1CCc2nc(N3CCN(C(=O)C4CCC4)CC3)sc2C1` (centres undefined): the RP-LC retention time is 608 s.
Then `COc1cc(NC(=O)c2c(OC)cc(=O)n3c2CCCC3)cc(OC)c1OC`, with 779 s; and `CC(C)c1noc(-c2ccc(-n3cnc(C(=O)N4CCSCC4)c3)nc2)n1`, with 863 s; and `Cc1ccc(C2Cn3nnc(C(=O)N4CCC(C(=O)NC5CC5)CC4)c3CO2)cc1` (centres undefined), with 733 s.
Next, `CNc1nc(N2CCNC(=O)C2)nc2ccccc12`: 564 s; `Cc1ccc(NC(=O)C2CCc3sc(C(=O)N(C)C)cc3C2)c(C)c1` (centres undefined): 799 s; `CC(C)CCNC(=O)C1(C)CN(S(=O)(=O)c2ccccc2)CC(=O)N1CCCc1ccccc1` (centres undefined): 1050 s.
Next, `Cc1ccc(C)c(NC(=O)NC2CCN(c3ccccc3)C2=O)c1` (centres undefined): 823 s; `O=C(NCCN1CCOCC1)c1cc2cc(Cl)ccc2o1`: 558 s.
